Where “and” joins values, the source holds several entries; their conditions need not be identical. Equal entries are not always repeated. Where two headings read alike, the source gives them in different places.
Key:
AKeco [1] = target: T1, AKeco (Escherichia coli, UniProt P69441); conditions: binding to AKeco; cited from earlier work
AK3 [2] = target: T2, AK3 (Homo sapiens, UniProt Q9UIJ7); assay: isothermal titration calorimetry; assay type: binding; conditions: for ΔHITC0: ITC binding enthalpy; for ΔHITC0 / −TΔSITC0 / ΔGITC0 / Kd: 25 °C; for −TΔSITC0: ITC binding entropy term; for ΔGITC0: ITC binding free energy; for n: ITC binding ratio (stoichiometry); for Kd: ITC
AK3 [3] = target: T2, AK3; assay: biochemical; conditions: KI´ (competitive inhibition), mixed inhibition model, 1.7 mM ATP, AMP variation
LcrG = LcrG (Yersinia pseudotuberculosis serotype I, UniProt P69958); assay: biochemical; assay type: binding
[4] = test system: AKeco (E. coli adenylate kinase); conditions: cited from earlier work
AK3 [5] = target: T2, AK3; assay: NMR 15N-HSQC chemical shift titration of ligand binding to AK3
AKeco [6] = target: T1, AKeco; assay: NMR titration of ATP to AKeco with adenosine binding sites blocked by AP5A; parameters: species or system E. coli
human α-synuclein = human α-synuclein (Homo sapiens, UniProt P37840); assay: NMR titration of ATP to α-synuclein; assay type: binding
AK3 [7] = target: T2, AK3; assay: coupled enzymatic assay of AK3 activity; assay type: biochemical
[8] = Table 2, average of three technical replicates, pH 7.0

T1 sequence (P69441 whole entry): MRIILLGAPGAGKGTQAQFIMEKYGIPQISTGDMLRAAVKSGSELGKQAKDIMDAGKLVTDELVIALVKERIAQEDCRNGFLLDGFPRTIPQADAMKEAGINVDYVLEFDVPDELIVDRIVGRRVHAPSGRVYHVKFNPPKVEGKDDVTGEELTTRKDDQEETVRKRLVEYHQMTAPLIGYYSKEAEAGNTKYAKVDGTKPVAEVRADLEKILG
T2 sequence (Q9UIJ7 whole entry): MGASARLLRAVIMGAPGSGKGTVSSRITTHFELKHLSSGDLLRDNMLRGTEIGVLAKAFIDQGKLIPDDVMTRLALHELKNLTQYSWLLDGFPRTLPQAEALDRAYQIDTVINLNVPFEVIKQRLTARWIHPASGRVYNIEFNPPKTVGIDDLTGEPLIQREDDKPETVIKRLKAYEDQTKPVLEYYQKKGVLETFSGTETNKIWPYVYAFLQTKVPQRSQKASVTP
LcrG, sequence (P69958 whole entry, looked up): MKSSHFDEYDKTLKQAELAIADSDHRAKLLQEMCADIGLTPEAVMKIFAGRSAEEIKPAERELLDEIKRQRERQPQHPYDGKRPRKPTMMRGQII

| SMILES | Kd (AKeco [1]) | ΔHITC0 (AK3 [2]; pH 7.0) | −TΔSITC0 (AK3 [2]; pH 7.0) | ΔGITC0 (AK3 [2]; pH 7.0) | n (AK3 [2]) | Kd (AK3 [2]; 30 mM MOPS pH 7.0, 50 mM NaCl) | Kd (AK3 [2]; [8]) | Ki (AK3 [3]) | Kd (LcrG) | Km ([4]; AKeco with ATP) | difference of the catalytic activity between ATP and GTP ([4]; AKeco) | Kd (AK3 [5]) | Kd (AKeco [6]) | Kd (human α-synuclein) | catalytic GTP versus ATP specificity (AK3 [7]) |
| --- | --- | --- | --- | --- | --- | --- | --- | --- | --- | --- | --- | --- | --- | --- | --- |
| Nc1ncnc2c1ncn2[C@@H]1O[C@H](COP(=O)(O)O)[C@@H](O)[C@H]1O [AMP, adenosine monophosphate] | 210 ± 66 µM | – | – | – | – | – | – | – | – | – | – | – | – | – | – |
| Nc1ncnc2c1ncn2[C@@H]1O[C@H](COP(=O)(O)OP(=O)(O)OP(=O)(O)O)[C@@H](O)[C@H]1O [ATP, adenosine triphosphate] | 50 µM | −11.1 ± 0.5 kcalmol^−1 | 4.4 ± 0.6 kcalmol^−1 | −6.7 ± 0.1 kcalmol^−1 | 0.94 ± 0.015 | ~13 µM | 13 ± 2 µM | 200 µM | 12000 ± 800 µM | 63 ± 7 µM | 60 fold | 9000 ± 3800 µM | 12000 ± 2100 µM | 13000 ± 2400 µM | – |
| Nc1nc2c(ncn2[C@@H]2O[C@H](COP(=O)(O)OP(=O)(O)OP(=O)(O)O)[C@@H](O)[C@H]2O)c(=O)[nH]1 [GTP, guanosine triphosphate] | – | −11.3 ± 0.3 kcalmol^−1 | 3.5 ± 0.4 kcalmol^−1 | −7.8 ± 0.1 kcalmol^−1 | 1.07 ± 0.025 | ~2 µM and 2 µM | 2.1 ± 0.5 µM | – | – | – | – | 1700 ± 1000 µM | – | – | ~40 fold |
